Values quoted from earlier work as cited in patent US10981914B2, “Toll-like receptor 7 (TLR7) agonists having a tricyclic moiety, conjugates thereof, and methods and uses therefor” (BRISTOL-MYERS SQUIBB COMPANY, priority 2017, dated 2021).

System: IFN-α
Conditions: as measured by IFN-α induction

CCCCOc1nc(N)c2c(n1)N(Cc1cccc(CN3CCCC3)c1)CC(=O)N2 [Vesatolimod, vesatolimod]
potency, fold less than that of the corresponding purine-8-one compound: 100 ×
